Data on one sequence can be found in patent US10239933B2, “Compositions and methods for modulating thrombin generation” (The Children's Hospital of Philadelphia, priority 2011, dated 2019).

Assay [1] addresses T1, FV-810 (Homo sapiens, UniProt P12259, DEL839-1519).
T1 construct: amino acids 1-28 are a signal peptide that is cleaved and numbering begins at residue 29; made in house
Put plainly: Fluorescence anisotropy, direct binding of OG488-BR to FV-810. The settings on record: fluorescently labeled FVBR. In general terms: Polarisation of emitted light reports the rotation of a fluorescent probe.

In assay [2] the target is T2, FXa/FVa (Homo sapiens, UniProt P12259).
T2 construct: thrombin rapidly cleaves Factor V at Arg709 to produce heavy chain (HC); rapidly cleaves at Arg1018 and Arg1545 to produce light chain (LC); made in house
T2 sequence (P12259 29-737 limits assumed): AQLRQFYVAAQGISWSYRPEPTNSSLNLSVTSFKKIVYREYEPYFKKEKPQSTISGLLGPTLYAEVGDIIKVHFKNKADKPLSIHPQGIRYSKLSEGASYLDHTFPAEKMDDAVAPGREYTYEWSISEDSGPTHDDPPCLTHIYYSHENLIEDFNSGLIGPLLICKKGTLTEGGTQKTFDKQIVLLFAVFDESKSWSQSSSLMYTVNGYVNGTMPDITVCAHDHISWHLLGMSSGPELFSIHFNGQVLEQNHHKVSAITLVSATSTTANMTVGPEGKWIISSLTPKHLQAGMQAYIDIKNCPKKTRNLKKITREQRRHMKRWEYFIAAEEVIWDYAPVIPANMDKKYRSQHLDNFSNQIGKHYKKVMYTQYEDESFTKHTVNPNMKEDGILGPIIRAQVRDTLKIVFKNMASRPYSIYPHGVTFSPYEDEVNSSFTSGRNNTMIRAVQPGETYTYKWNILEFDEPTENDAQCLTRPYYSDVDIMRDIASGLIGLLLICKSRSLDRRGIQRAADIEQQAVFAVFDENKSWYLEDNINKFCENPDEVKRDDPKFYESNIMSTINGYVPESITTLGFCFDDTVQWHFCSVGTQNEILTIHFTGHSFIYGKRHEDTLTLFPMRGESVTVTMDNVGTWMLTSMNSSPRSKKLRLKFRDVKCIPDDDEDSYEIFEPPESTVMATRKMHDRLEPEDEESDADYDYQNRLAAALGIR
T2 sequence (P12259 1574-2224 limits assumed): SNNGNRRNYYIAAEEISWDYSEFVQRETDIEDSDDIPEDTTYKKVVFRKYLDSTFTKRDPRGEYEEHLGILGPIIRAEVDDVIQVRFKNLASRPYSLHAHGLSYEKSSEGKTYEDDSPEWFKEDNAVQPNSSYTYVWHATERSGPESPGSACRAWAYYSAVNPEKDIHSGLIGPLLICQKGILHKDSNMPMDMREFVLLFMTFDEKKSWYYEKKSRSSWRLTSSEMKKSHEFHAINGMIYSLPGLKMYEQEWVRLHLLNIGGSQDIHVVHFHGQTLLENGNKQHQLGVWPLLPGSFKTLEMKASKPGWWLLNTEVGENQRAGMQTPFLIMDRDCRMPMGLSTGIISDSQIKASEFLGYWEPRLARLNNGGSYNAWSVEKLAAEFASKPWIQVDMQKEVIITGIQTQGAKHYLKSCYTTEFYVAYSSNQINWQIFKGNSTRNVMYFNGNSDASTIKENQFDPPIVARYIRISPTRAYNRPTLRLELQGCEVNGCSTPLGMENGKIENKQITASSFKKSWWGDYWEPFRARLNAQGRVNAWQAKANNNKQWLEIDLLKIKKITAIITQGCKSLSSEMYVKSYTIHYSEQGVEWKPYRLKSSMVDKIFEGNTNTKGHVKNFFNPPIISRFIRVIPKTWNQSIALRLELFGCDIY
In words: Prothrombin activation assay, FXa/FVa. The format is biochemical. How it is done:
Steady-state initial velocities of prothrombin cleavage were determined discontinuously at 25° C. by measuring the initial rate of thrombin formation. Reaction mixtures contained liposomes (75:25, PC:PS), prothrombin, the indicated Factor V variants, and the Factor V peptides FVBR or s46. The reactions were initiated by adding Factor Xa, and thrombin generation was determined at multiple time points by monitoring the cleavage of the chromogenic thrombin substrate S-2238.
Steady-state initial velocities of prothrombin cleavage were determined discontinuously at 25° C. as described (Camire, R. M. (2002) J. Biol. Chem., 277:37863-37870). Reaction mixtures containing PCPS (50 μM), DAPA (3 μM), prothrombin (1.4 μM), and either rFVa or the indicated FV-810 derivatives were incubated with B-domain peptides (0-10 μM) in assay buffer. […] Prothrombin activation was determined using the chromogenic thrombin substrate 52238 as described (Camire, R. M. (2002) J. Biol. Chem., 277:37863-37870).

In assay [3] the target is T1, FV-810. In words: Prethrombin-2 activation, competition of BR and FXa for FV-810. The format is biochemical. The note with it: read-out: Kd for FV-810 from prethrombin-2 activation, model for tight binding.
Assay [4] addresses T3, rFVa (Homo sapiens, UniProt P12259).
T3 construct: thrombin rapidly cleaves Factor V at Arg709 to produce heavy chain (HC); rapidly cleaves at Arg1018 and Arg1545 to produce light chain (LC); made in house
T3 sequence (P12259 29-737 limits assumed): T2 sequence (P12259 29-737 limits assumed)
T3 sequence (P12259 1574-2224 limits assumed): T2 sequence (P12259 1574-2224 limits assumed)
Put plainly: Clotting assay, FV-deficient plasma supplemented with rFVa. Format: biochemical. The note with it: FIG. 8B: 0.25 nM rFVa, peptides at 5 μM, listed as BR peptide. How it is done: (§1) Residual clotting activity of Factor V variants was determined by prothrombin time-based clotting assays. Factor V variants were incubated with either the FVBR or s46 peptide, after which the mixtures were mixed with Factor V deficient plasma and clotting times were measured. Where indicated, the Factor V variants were activated by pre-incubation with thrombin prior to addition of the peptides.
(§2) FV derivatives (500 nM) were prepared in assay buffer. Where noted, FV derivatives were pretreated with 10 nM thrombin for 15 minutes at 37° C., followed by the addition of 15 nM hirudin. Samples were diluted to 0.25 nM in assay buffer with 0.1% BSA, and the specific clotting activity was measured in FV-deficient plasma (George King Bio-Medical, Overland Park, Kans.) with TriniCLOT PT Excel (Tcoag, Wicklow, Ireland) as described (Camire et al. (1998) Biochemistry 37:11896-11906). The data are presented as the means±S.D.

For assay [5], the target named is T4, plasma-derived Factor V (Homo sapiens, UniProt P12259).
T4 construct: from tissue; host or cells: plasma
T4 sequence (P12259 29-2224): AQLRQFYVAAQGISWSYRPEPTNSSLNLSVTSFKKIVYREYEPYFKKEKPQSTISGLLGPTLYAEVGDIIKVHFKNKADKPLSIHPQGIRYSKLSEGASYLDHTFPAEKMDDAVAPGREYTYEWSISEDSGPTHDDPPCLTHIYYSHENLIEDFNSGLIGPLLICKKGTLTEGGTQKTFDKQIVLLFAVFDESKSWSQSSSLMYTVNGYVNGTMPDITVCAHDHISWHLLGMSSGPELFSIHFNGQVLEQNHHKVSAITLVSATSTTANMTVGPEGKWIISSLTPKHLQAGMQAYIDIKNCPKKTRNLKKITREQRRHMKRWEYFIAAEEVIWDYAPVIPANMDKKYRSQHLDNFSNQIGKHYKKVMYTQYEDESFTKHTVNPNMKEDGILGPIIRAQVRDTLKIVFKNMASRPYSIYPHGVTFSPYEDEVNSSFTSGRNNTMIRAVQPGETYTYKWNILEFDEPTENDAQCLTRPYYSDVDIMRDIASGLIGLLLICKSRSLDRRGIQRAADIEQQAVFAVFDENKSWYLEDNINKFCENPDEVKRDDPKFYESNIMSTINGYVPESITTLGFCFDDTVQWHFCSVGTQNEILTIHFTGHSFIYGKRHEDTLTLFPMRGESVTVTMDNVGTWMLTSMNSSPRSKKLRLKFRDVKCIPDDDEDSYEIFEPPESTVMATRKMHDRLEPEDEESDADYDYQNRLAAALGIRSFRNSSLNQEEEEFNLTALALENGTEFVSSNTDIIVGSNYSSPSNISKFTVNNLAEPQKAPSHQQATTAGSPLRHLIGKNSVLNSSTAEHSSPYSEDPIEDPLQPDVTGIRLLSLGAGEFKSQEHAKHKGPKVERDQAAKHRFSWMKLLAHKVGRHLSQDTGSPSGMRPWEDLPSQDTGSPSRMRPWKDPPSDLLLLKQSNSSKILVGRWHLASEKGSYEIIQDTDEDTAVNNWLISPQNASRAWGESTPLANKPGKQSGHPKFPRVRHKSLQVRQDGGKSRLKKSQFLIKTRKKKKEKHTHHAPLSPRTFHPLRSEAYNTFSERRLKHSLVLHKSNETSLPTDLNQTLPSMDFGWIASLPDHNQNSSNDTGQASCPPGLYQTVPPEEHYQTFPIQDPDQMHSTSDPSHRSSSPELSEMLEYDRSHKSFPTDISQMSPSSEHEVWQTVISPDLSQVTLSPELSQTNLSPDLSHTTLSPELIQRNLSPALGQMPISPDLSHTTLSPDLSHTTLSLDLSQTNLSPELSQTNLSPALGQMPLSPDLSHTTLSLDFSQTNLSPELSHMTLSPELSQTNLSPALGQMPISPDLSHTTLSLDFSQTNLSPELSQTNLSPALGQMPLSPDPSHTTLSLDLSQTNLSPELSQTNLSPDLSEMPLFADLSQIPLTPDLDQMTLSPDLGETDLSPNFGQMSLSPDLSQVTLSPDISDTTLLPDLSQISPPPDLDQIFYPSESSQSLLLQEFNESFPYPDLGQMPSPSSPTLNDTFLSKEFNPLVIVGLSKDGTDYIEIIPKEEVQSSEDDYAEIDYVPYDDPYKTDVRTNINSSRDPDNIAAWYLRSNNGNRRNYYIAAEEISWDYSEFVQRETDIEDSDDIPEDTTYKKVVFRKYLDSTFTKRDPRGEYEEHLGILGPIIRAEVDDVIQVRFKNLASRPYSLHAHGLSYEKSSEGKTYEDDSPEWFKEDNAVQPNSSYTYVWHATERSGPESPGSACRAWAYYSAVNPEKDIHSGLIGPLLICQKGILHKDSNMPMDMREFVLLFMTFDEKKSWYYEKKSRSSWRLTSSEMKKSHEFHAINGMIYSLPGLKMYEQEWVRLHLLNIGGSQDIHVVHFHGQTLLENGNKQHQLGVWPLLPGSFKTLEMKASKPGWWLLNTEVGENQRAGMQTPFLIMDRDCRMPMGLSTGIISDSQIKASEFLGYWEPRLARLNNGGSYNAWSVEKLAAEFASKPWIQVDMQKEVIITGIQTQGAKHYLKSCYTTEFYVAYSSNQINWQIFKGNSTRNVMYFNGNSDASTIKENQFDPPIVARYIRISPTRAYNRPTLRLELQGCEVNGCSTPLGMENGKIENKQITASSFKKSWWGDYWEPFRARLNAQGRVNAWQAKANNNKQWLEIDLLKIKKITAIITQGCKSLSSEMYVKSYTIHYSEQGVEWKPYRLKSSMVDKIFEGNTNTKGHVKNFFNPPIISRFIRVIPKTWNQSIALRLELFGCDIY
In words: Proteolytic activation of Factor V by thrombin (SDS-PAGE). The note with it: presence of FVBR. The format is biochemical. How it is done:
Plasma-derived Factor V was incubated with thrombin in the presence or absence of FVBR peptide. Samples were removed and quenched in sample buffer at the indicated times, and the cleavage products were analyzed by SDS-PAGE and Coomassie Brilliant Blue staining.

In assay [6] the target is T5, FV-810^QQ (Homo sapiens, UniProt P12259, DEL839-1519/R1573Q/R737Q).
T5 construct: amino acids 1-28 are a signal peptide that is cleaved and numbering begins at residue 29; made in house
T5 sequence (P12259 with tags, fused parts or gaps R737Q/DEL839-1519/R1573Q): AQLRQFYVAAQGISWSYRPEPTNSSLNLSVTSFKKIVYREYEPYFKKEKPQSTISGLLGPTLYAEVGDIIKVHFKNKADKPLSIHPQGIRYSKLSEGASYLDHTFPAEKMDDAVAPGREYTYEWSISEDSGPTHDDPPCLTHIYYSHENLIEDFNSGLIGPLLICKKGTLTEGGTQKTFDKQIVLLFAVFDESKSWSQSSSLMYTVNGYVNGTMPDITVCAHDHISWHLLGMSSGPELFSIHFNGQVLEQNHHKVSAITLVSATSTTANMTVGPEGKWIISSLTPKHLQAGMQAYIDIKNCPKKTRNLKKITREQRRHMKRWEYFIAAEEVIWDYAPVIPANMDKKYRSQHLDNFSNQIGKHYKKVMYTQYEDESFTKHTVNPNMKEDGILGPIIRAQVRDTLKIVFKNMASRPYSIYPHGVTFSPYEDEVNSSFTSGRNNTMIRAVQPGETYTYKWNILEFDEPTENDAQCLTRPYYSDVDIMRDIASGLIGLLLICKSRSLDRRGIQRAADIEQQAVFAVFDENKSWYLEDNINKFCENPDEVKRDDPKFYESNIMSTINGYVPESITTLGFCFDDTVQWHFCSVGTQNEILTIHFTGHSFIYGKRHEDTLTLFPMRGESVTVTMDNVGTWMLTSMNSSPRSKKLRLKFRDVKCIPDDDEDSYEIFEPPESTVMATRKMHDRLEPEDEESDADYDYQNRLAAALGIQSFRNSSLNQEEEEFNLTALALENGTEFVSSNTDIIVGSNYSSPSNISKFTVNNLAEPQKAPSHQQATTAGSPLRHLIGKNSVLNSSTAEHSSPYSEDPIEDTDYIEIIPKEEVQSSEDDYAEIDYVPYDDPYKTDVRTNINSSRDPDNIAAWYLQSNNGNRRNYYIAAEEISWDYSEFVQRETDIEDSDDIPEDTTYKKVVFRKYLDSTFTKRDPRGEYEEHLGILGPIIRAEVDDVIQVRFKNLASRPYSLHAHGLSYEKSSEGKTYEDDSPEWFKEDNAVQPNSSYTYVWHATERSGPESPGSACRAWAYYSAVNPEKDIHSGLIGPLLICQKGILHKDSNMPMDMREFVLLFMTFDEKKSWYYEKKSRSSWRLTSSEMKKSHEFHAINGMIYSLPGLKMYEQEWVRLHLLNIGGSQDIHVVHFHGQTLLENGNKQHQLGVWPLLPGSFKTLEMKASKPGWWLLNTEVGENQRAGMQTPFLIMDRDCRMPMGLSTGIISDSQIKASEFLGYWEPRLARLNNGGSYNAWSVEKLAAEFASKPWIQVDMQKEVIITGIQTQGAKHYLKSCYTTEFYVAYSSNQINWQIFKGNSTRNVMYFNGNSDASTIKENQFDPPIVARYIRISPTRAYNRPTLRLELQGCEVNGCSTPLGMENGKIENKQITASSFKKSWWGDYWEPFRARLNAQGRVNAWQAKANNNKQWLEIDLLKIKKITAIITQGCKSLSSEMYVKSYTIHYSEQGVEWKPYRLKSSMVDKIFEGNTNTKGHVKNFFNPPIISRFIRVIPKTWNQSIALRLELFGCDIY
Put plainly: Clotting assay with FV-810^QQ. The format is biochemical. The procedure:
as §1, §2

Entries after “also recorded” stand apart in the source; their conditions may differ. Like-named read-outs stand apart in the source and are kept apart here. Ends that are not written are not given here.

T1 sequence (P12259 with tags, fused parts or gaps DEL839-1519): as the sequence (P12259 with tags, fused parts or gaps R737Q/DEL839-1519/R1573Q) above, with Q709R, Q864R counted along it

With “SRAWGESTPLANKPGKQSGHPKFPRVRHKSLQVRQDGGKSRLKKSQFLIKTRKKKKEK [FVBR]”, the “direct binding to FVDT” value in assay [1] is on record as “direct binding”; in assay [1] (listed as FV basic region peptide) it was “binds FVDT”. Further, the entries for the “effect on prothrombin activation by FXa/FVa” value in assay [2] and in assay [2] (listed as BR peptide) were “did not affect” and “no inhibitory effect”, respectively. Also, the Kd in assay [3] was 34.2 ± 3.6 nM. Besides, the “inhibition of clotting activity of rFVa/FVa” value in assay [4] was “no inhibitory effect”. Further, the “proteolytic activation of FV by thrombin, cleavage at Arg1545” value in assay [5] is “delays the proteolytic activation; also recorded: delayed cleavage”. The “thrombin cleavage of FV at Arg709” value in assay [5] is reported as “proceeds normally”. In addition, the “inhibition of FV-810^QQ” value was “still inhibited” in assay [6] (following incubation with thrombin) and “potently inhibited” in assay [6] (prior to thrombin cleavage).

What is called Kd is a measure of binding affinity in units of concentration.
